Key:
[1] = tested on: ENR+CD organoids (ISC to Paneth cell differentiation); assay: Primary screen: basal (non-stimulated) lysozyme secretion LYZ.NS, 2.5-D 384-well ENR+CD organoid differentiation; format: cell-based, mouse
Source text: (§1) High-throughput screening.

ENR+CD organoids = assay: Primary screen: ATP (CellTiter-Glo 3D, CTG) cell number/viability, 2.5-D 384-well ENR+CD organoids;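 note: compounds given at plating and again on day 3 over a 6-day differentiation from ENR+CV stem-cell-enriched precursors, ATP measured on day 6, plate median as control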
[2] = tested on: ENR+CD organoids (ISC to Paneth cell differentiation); assay: Primary screen: CCh-stimulated lysozyme secretion LYZ.S, 2.5-D 384-well ENR+CD organoid differentiation; format: cell-based, mouse; details: primary screen
Source text: as §1

[3] = primary screen, standard z score, dose 0.08 uM
[4] = primary screen, standard z score, dose 0.40 uM
[5] = primary screen, standard z score, dose 2.00 uM
[6] = primary screen, standard z score, dose 10.00 uM
[7] = primary screen, dose 0.08 uM, FC relative to plate median
[8] = primary screen, dose 0.08 uM, standard z score
[9] = primary screen, dose 0.40 uM, FC relative to plate median
[10] = primary screen, dose 0.40 uM, standard z score
[11] = primary screen, dose 2.00 uM, FC relative to plate median
[12] = primary screen, dose 2.00 uM, standard z score
[13] = primary screen, dose 10.00 uM, FC relative to plate median
[14] = primary screen, dose 10.00 uM, standard z score
[15] = primary screen; dose 0.08 uM; FC vs plate median
[16] = primary screen; dose 0.40 uM; FC vs plate median
[17] = primary screen; dose 2.00 uM; FC vs plate median
[18] = primary screen; dose 10.00 uM; FC vs plate median
[19] = dose 0.08 uM, FC vs plate median
[20] = dose 0.40 uM, FC vs plate median
[21] = dose 2.00 uM, FC vs plate median
[22] = dose 10.00 uM, FC vs plate median

Compound | Dose.FC.LYZ.NS ([1]; primary screen, dose 0.08 uM) [log2 fold change] | Dose.FC.LYZ.NS ([1]; primary screen, dose 0.40 uM) [log2 fold change] | Dose.FC.LYZ.NS ([1]; primary screen, dose 2.00 uM) [log2 fold change] | Dose.FC.LYZ.NS ([1]; primary screen, dose 10.00 uM) [log2 fold change] | Dose.FC.CTG (ENR+CD organoids; primary screen, dose 0.08 uM) [log2 fold change] | Dose.FC.CTG (ENR+CD organoids; primary screen, dose 0.40 uM) [log2 fold change] | Dose.FC.CTG (ENR+CD organoids; primary screen, dose 2.00 uM) [log2 fold change] | Dose.FC.CTG (ENR+CD organoids; primary screen, dose 10.00 uM) [log2 fold change] | Dose.FC.LYZ.S ([2]; dose 0.08 uM) [log2 fold change] | Dose.FC.LYZ.S ([2]; dose 0.40 uM) [log2 fold change] | Dose.FC.LYZ.S ([2]; dose 2.00 uM) [log2 fold change] | Dose.FC.LYZ.S ([2]; dose 10.00 uM) [log2 fold change] | Z.LYZ.NS [1, 8] | Z.LYZ.NS [1, 10] | Z.LYZ.NS [1, 12] | Z.LYZ.NS [1, 14] | Z.CTG (ENR+CD organoids; [8]) | Z.CTG (ENR+CD organoids; [10]) | Z.CTG (ENR+CD organoids; [12]) | Z.CTG (ENR+CD organoids; [14]) | also measured
BAM7 | 0.045 | −0.009 | 0.057 | −0.007 | 0.209 | −0.010 | −0.156 | −0.114 | 0.079 | 0.039 | 0.019 | −0.020 | – | – | – | – | – | – | – | – | Z.LYZ.NS (standard z score) ([1]; primary screen, dose 0.08 uM): 0.391; Z.LYZ.NS (standard z score) ([1]; primary screen, dose 0.40 uM): −0.082; Z.LYZ.NS (standard z score) ([1]; primary screen, dose 2.00 uM): 0.498; Z.LYZ.NS (standard z score) ([1]; primary screen, dose 10.00 uM): −0.063; Z.CTG (standard z score) (ENR+CD organoids; primary screen, dose 0.08 uM): 0.498; Z.CTG (standard z score) (ENR+CD organoids; primary screen, dose 0.40 uM): −0.024; Z.CTG (standard z score) (ENR+CD organoids; primary screen, dose 2.00 uM): −0.373; Z.CTG (standard z score) (ENR+CD organoids; primary screen, dose 10.00 uM): −0.272
CNC(=O)c1cc(Oc2ccc(NC(=O)Nc3cc(C(C)(C)C)nn3-c3ccc4ncccc4c3)c(F)c2)ccn1 [DCC-2036 (Rebastinib)] | 0.259 | 0.128 | 0.073 | −0.209 | 0.216 | 0.218 | −0.038 | −0.322 | 0.358 | 0.186 | 0.054 | −0.244 | – | – | – | – | – | – | – | – | Z.LYZ.NS [1, 3]: 2.256; Z.LYZ.NS [1, 4]: 1.116; Z.LYZ.NS [1, 5]: 0.637; Z.LYZ.NS [1, 6]: −1.823; Z.CTG (ENR+CD organoids; [3]): 0.516; Z.CTG (ENR+CD organoids; [4]): 0.520; Z.CTG (ENR+CD organoids; [5]): −0.091; Z.CTG (ENR+CD organoids; [6]): −0.769
CN1CCC(CNc2ccc3ncc(-c4cccc(OC(F)(F)F)c4)n3n2)CC1 [SGI-1776free base] | – | – | – | – | – | – | – | – | – | – | – | – | 1.013 | 0.362 | 0.108 | −1.784 | 0.407 | 0.665 | 0.506 | −2.468 | Dose.FC.LYZ.NS [1, 7]: 0.116 log2 fold change; Dose.FC.LYZ.NS [1, 9]: 0.042 log2 fold change; Dose.FC.LYZ.NS [1, 11]: 0.012 log2 fold change; Dose.FC.LYZ.NS [1, 13]: −0.205 log2 fold change; Dose.FC.CTG (ENR+CD organoids; [7]): 0.170 log2 fold change; Dose.FC.CTG (ENR+CD organoids; [9]): 0.278 log2 fold change; Dose.FC.CTG (ENR+CD organoids; [11]): 0.212 log2 fold change; Dose.FC.CTG (ENR+CD organoids; [13]): −1.033 log2 fold change; Dose.FC.LYZ.S ([2]; dose 0.08 uM, FC relative to plate median): 0.159 log2 fold change; Dose.FC.LYZ.S ([2]; dose 0.40 uM, FC relative to plate median): 0.088 log2 fold change; Dose.FC.LYZ.S ([2]; dose 2.00 uM, FC relative to plate median): 0.011 log2 fold change; Dose.FC.LYZ.S ([2]; dose 10.00 uM, FC relative to plate median): −0.317 log2 fold change
CCc1cccc2c3c([nH]c12)C(CC)(CC(=O)O)OCC3 (centres unmarked) [Etodolac] | 0.046 | 0.036 | 0.052 | −0.009 | −0.061 | 0.049 | 0.008 | 0.023 | 0.034 | 0.127 | 0.070 | −0.011 | – | – | – | – | – | – | – | – | Z.LYZ.NS [1, 3]: 0.400; Z.LYZ.NS [1, 4]: 0.314; Z.LYZ.NS [1, 5]: 0.452; Z.LYZ.NS [1, 6]: −0.078
COc1cc(OC)c(NC(=O)Nc2cc(C)on2)cc1Cl [PNU-120596] | – | – | – | – | – | – | – | – | – | – | – | – | 0.944 | −0.098 | 0.594 | −0.525 | −0.188 | 0.204 | 0.271 | 0.330 | Dose.FC.LYZ.NS [1, 15]: 0.108 log2 fold change; Dose.FC.LYZ.NS [1, 16]: −0.011 log2 fold change; Dose.FC.LYZ.NS [1, 17]: 0.068 log2 fold change; Dose.FC.LYZ.NS [1, 18]: −0.060 log2 fold change; Dose.FC.CTG (ENR+CD organoids; [15]): −0.079 log2 fold change; Dose.FC.CTG (ENR+CD organoids; [16]): 0.085 log2 fold change; Dose.FC.CTG (ENR+CD organoids; [17]): 0.114 log2 fold change; Dose.FC.CTG (ENR+CD organoids; [18]): 0.138 log2 fold change; Dose.FC.LYZ.S [2, 19]: 0.058 log2 fold change; Dose.FC.LYZ.S [2, 20]: 0.081 log2 fold change; Dose.FC.LYZ.S [2, 21]: 0.065 log2 fold change; Dose.FC.LYZ.S [2, 22]: −0.049 log2 fold change
C1=N/C2=N/c3ccc(OCCN4CCCC4)c(c3)COC/C=C/COCc3cccc(c3)C(=C1)N2 [Pacritinib (SB1518)] | – | – | – | – | – | – | – | – | – | – | – | – | 0.795 | −0.299 | −1.908 | −2.391 | −0.014 | 0.236 | −0.560 | −3.047 | Dose.FC.LYZ.NS [1, 15]: 0.091 log2 fold change; Dose.FC.LYZ.NS [1, 16]: −0.034 log2 fold change; Dose.FC.LYZ.NS [1, 17]: −0.219 log2 fold change; Dose.FC.LYZ.NS [1, 18]: −0.275 log2 fold change; Dose.FC.CTG (ENR+CD organoids; [15]): −0.006 log2 fold change; Dose.FC.CTG (ENR+CD organoids; [16]): 0.099 log2 fold change; Dose.FC.CTG (ENR+CD organoids; [17]): −0.235 log2 fold change; Dose.FC.CTG (ENR+CD organoids; [18]): −1.276 log2 fold change; Dose.FC.LYZ.S [2, 19]: 0.066 log2 fold change; Dose.FC.LYZ.S [2, 20]: −0.032 log2 fold change; Dose.FC.LYZ.S [2, 21]: −0.304 log2 fold change; Dose.FC.LYZ.S [2, 22]: −0.419 log2 fold change
COc1ccc(CNCc2cccc3ccccc23)cc1.Cl [ML133 HCl] | – | – | – | – | – | – | – | – | – | – | – | – | 0.261 | −0.116 | 0.633 | −0.155 | −0.023 | −0.360 | −0.591 | −0.096 | Dose.FC.LYZ.NS [1, 15]: 0.030 log2 fold change; Dose.FC.LYZ.NS [1, 16]: −0.013 log2 fold change; Dose.FC.LYZ.NS [1, 17]: 0.073 log2 fold change; Dose.FC.LYZ.NS [1, 18]: −0.018 log2 fold change; Dose.FC.CTG (ENR+CD organoids; [15]): −0.009 log2 fold change; Dose.FC.CTG (ENR+CD organoids; [16]): −0.151 log2 fold change; Dose.FC.CTG (ENR+CD organoids; [17]): −0.247 log2 fold change; Dose.FC.CTG (ENR+CD organoids; [18]): −0.040 log2 fold change; Dose.FC.LYZ.S [2, 19]: 0.062 log2 fold change; Dose.FC.LYZ.S [2, 20]: −0.018 log2 fold change; Dose.FC.LYZ.S [2, 21]: 0.087 log2 fold change; Dose.FC.LYZ.S [2, 22]: −0.014 log2 fold change
COc1ccc(C[C@@H](C)NC[C@H](O)c2ccc(O)c(NC=O)c2)cc1.COc1ccc(C[C@@H](C)NC[C@H](O)c2ccc(O)c(NC=O)c2)cc1.O=C(O)/C=C/C(=O)O [Formoterol Hemifumarate] | 0.145 | 0.073 | 0.048 | 0.013 | 0.294 | 0.265 | 0.242 | 0.253 | 0.206 | 0.293 | 0.090 | 0.011 | – | – | – | – | – | – | – | – | Z.LYZ.NS [1, 3]: 1.263; Z.LYZ.NS [1, 4]: 0.638; Z.LYZ.NS [1, 5]: 0.420; Z.LYZ.NS [1, 6]: 0.114; Z.CTG (ENR+CD organoids; [3]): 0.703; Z.CTG (ENR+CD organoids; [4]): 0.633; Z.CTG (ENR+CD organoids; [5]): 0.578; Z.CTG (ENR+CD organoids; [6]): 0.604
O=C(O)c1ccc(Nc2ncc3c(n2)-c2ccc(Cl)cc2C(c2c(F)cccc2F)=NC3)cc1 [MLN8054] | – | – | – | – | – | – | – | – | – | – | – | – | 0.574 | 0.066 | −0.868 | −0.979 | – | – | – | – | Dose.FC.LYZ.NS [1, 15]: 0.066 log2 fold change; Dose.FC.LYZ.NS [1, 16]: 0.008 log2 fold change; Dose.FC.LYZ.NS [1, 17]: −0.100 log2 fold change; Dose.FC.LYZ.NS [1, 18]: −0.112 log2 fold change; Dose.FC.CTG (ENR+CD organoids; [15]): 0.026 log2 fold change; Dose.FC.CTG (ENR+CD organoids; [16]): 0.014 log2 fold change; Dose.FC.CTG (ENR+CD organoids; [17]): −0.465 log2 fold change; Dose.FC.CTG (ENR+CD organoids; [18]): −0.498 log2 fold change; Dose.FC.LYZ.S [2, 19]: 0.042 log2 fold change; Dose.FC.LYZ.S [2, 20]: 0.167 log2 fold change; Dose.FC.LYZ.S [2, 21]: −0.087 log2 fold change; Dose.FC.LYZ.S [2, 22]: −0.197 log2 fold change
CCCSc1nc(N[C@@H]2C[C@H]2c2ccc(F)c(F)c2)c2nnn([C@@H]3C[C@H](OCCO)[C@@H](O)[C@H]3O)c2n1 [Ticagrelor] | 0.115 | −0.032 | 0.120 | 0.020 | −0.080 | −0.029 | −0.270 | −0.241 | 0.042 | 0.000 | 0.018 | 0.022 | – | – | – | – | – | – | – | – | Z.LYZ.NS (standard z score) ([1]; primary screen, dose 0.08 uM): 0.998; Z.LYZ.NS (standard z score) ([1]; primary screen, dose 0.40 uM): −0.276; Z.LYZ.NS (standard z score) ([1]; primary screen, dose 2.00 uM): 1.041; Z.LYZ.NS (standard z score) ([1]; primary screen, dose 10.00 uM): 0.170

— patent publication US20220323406A1, “METHODS AND COMPOSITIONS FOR DIFFERENTIATING STEM CELLS” (Massachusetts Institute of Technology, priority 2019, published 2022)
